In PMC10328743, “5-Nitro-3-(2-(4-phenylthiazol-2-yl)hydrazineylidene)indolin-2-one derivatives inhibit HIV-1 replication by a multitarget mechanism of action” (Frontiers in Cellular and Infection Microbiology, 2023):
Like-named read-outs stand apart in the source and are kept apart here.

Legend:
HIV-1 [1] = assay: HIV-1 replication inhibition in MT4 cells; type: cell-based; settings: three independent experiments, average ± standard deviation, read-out: HIV-1 EC50
Description: HIV-1 replication was carried out in MT4 cells as previously reported ([Corona et al., 2016a]) using a molecular clone derived from the pNL4-3 ([Thierry et al., 2015]). A total of 120 ng of p24^gag antigen per 10^6 cells, corresponding to a multiplicity of infection (m.o.i.) of 0.3, was used for infection. […] Flow cytometry analysis was performed on a FACSCalibur flow cytometer (BD Biosciences, San Jose, CA, USA), and the results were analyzed using the […] software.

[2] = molecular target: T1, HIV-1 IN (LEDGF/p75-dependent) (Human immunodeficiency virus type 1 group M subtype B, UniProt P12497); assay: biochemical; type: biochemical; settings: strand-transfer activity in the presence of LEDGF/p75; for IC50: read-out: IC50 IN LEDGF-dependent integration
T1 construct: Preparation of recombinant full-length IN and LEDGF proteins; made in house; host or cells: E. coli BL21(DE3)
Description: (§1) Proteins were expressed in E. coli BL21(DE3). Briefly, His-IN was purified by loading the precipitate of cell lysate onto a Ni-Sepharose column and eluting with a […] imidazole gradient (0–500 mM) in a HEPES buffer (50 mM, pH 7.5) containing NaCl (1 M), CHAPS (7.5 mM), and β-mercaptoethanol (2 mM). FLAG-IN was purified by loading the precipitate of cell lysate onto a phenyl-sepharose and ammonium sulfate gradient (0–800 mM) in a HEPES (pH 7.5, 50 mM) buffer containing NaCl (200 mM), CHAPS (7.5 mM), and β-mercaptoethanol (2 mM). Peak fractions were pooled, loaded onto a heparin column, and eluted with an increasing NaCl gradient (200 mM to 1 M) in a HEPES (pH 7.5, 50 mM) buffer containing CHAPS (7.5 mm) and β-mercaptoethanol (2 mM). Fractions containing integrase were pooled and stored in glycerol (10%) at −80°C.
Briefly, IN (50 nM) was preincubated with increasing concentrations of compounds for 1 h at room temperature in a reaction buffer containing HEPES (20 mM, pH 7.5), DTT (1 mM), glycerol (1%), MgCl2 (20 mM), Brij-35 (0.05%), and bovine serum albumin (BSA) (0.1 mg/ml).

[3] = molecular target: T2, HIV-1 IN-IN subunit exchange (Human immunodeficiency virus type 1 group M subtype B, UniProt P12497); assay: HTRF-based IN subunit exchange assay; type: binding
T2 construct: Preparation of recombinant full-length IN and LEDGF proteins; made in house; host or cells: E. coli BL21(DE3)
Description: as §1
His and FLAG-tagged INs were mixed in Tris (pH 7.4, 25 mm) buffer containing NaCl (150 mm), MgCl2 (2 mM), Nonidet P-40 (0.1%), and BSA (1 mg/ml). Test compounds were then added to the mixture, and incubation was carried out for 2.5 h at room temperature.

HIV-1 IN-LEDGF binding = molecular target: T3, HIV-1 IN-LEDGF binding (Human immunodeficiency virus type 1 group M subtype B, UniProt P12497); assay: biochemical
T3 construct: Preparation of recombinant full-length IN and LEDGF proteins; made in house; host or cells: E. coli BL21(DE3)
Description: as §1
Briefly, His-IN was preincubated with different concentrations of a compound in a buffer containing NaCl (150 mm), MgCl2 (2 mM), Nonidet P-40 (0.1%), BSA (1 mg/ml), and Tris (pH 7.4, 25 mm) for 30 min at room temperature. Then, FLAG-LEDGF was added to the reaction mixture, and a mixture of anti-His6-XL665 and anti-FLAG-EuCryptate antibodies was added.

HIV-1 [4] = assay: Quantification of viral DNA genomes by qPCR in infected MT4 cells; type: cell-based; settings: single HIV-1 replication cycle; for total viral DNA: increasing concentrations
Description: Quantitative PCR (qPCR) was performed as described previously ([Munir et al., 2013]). […] Cells were washed in phosphate-buffered saline (PBS), and dry cell pellets were frozen at −80°C until use. DNA from samples was purified with QIAamp DNA Blood mini kit (Qiagen, Valencia, CA, USA) according to the manufacturer’s instructions. Quantification of total viral DNAs, 2-LTR circular viral DNA (2-LTRc), and integrated DNAs was performed on a LightCycler instrument (Roche Diagnostics, Basel, Switzerland) using the second-derivative-maximum method provided by the LightCycler quantification software, version 3.5 (Roche Diagnostics). Amplification of the β-globin gene (two copies per diploid cell) was performed to normalize the results using the commercially available materials (Control kit DNA; Roche Diagnostics). The quantification of the results for 2-LTRc and total HIV-1 DNA was expressed as copy numbers per µg DNA. Integrated HIV-1 DNA was expressed as a percentage of wt control. Data were represented by mean and standard deviation of two independent experiments; p-values were calculated between the infected and infected-treated conditions by unpaired, two-tailed t-tests using GraphPad Prism Version 9.5.1 software (GraphPad Software, Inc., San Diego, CA, USA). Figures were drawn with GraphPad Prism Version 9.5.1.

[5] = test system: HIV-1 RTs bearing K103N, Y181C, and Y188L (RNase H); assay: RNase H activity of HIV-1 RTs bearing K103N, Y181C and Y188L substitutions; type: biochemical; settings: all cases
Description: K103N, Y181C, and Y188L mutations were introduced into the p6HRT-prot vector using the QuikChange protocol (Agilent Technologies, Santa Clara, CA, USA). Enzymes were expressed and purified as the wt-HIV-1 RT.
HIV RT-associated RNase H activity was measured as described ([Corona et al., 2016b]) in a 100-µl reaction volume containing 50 mM of Tris-HCl buffer, pH 7.8, 6 mM of MgCl2, 1 mM of dithiothreitol (DTT), 80 mM of KCl, 0.25 µM of hybrid RNA/DNA 5′-[…]-Fluorescin-3′ (high-performance liquid chromatography (HPLC), dry, QC: Mass Check) (available from Metabion) 5′-Dabcyl-[…]-3′ (HPLC, dry, QC: Mass Check), increasing concentrations of inhibitors, whose dilution were made in water, and different amounts of enzymes according to a linear range of the dose–response curve. The reaction mixture was incubated for 1 h at 37°C and stopped by the addition of EDTA, and products were measured with a multilabel counter plate reader Victor 3 equipped with filters for 490/528 nm.

[6] = Human immunodeficiency virus 1, MT4, viral replication in MT4 cells

Row | Structure (SMILES) | EC50 (HIV-1 [1]; [6]) [µM] | EC50 (HIV-1 [1]; viral replication in MT4 cells) [µM] | IC50 IN LEDGF-dependent integration [2] | IC50 [2] [µM] | IC50 [3] [µM] | IC50 (HIV-1 IN-LEDGF binding) [µM] | DNA 2LTRc levels (HIV-1 [4]) | total viral DNA (HIV-1 [4]) | increase in IC50 values vs wt RT, RNase H function [5] | IC50 IN/LEDGF binding (HIV-1 IN-LEDGF binding) | integrated viral DNA (HIV-1 [4]; 48 h)
1 | O=C1Nc2ccc(Cl)cc2/C1=N/Nc1nc(-c2ccc(Cl)c(Cl)c2)cs1 [9b] | < 20 | 13.2 ± 3.7 | not able to inhibit IN | > 100 | > 100 | > 100 | no increase | decrease in total viral DNA | less than threefold |  | 
2 | Cc1ccc(-c2csc(N/N=C3\C(=O)Nc4ccc([N+](=O)[O-])cc43)n2)cc1 [10a] | < 20 | 15.8 ± 1.8 |  | 32.3 ± 2.7 | 11.5 ± 1.5 | > 100 | marked increase | decrease in total viral DNA | less than threefold | without interfering with the binding of LEDGF | significantly more marked effect than 9b
